What was measured:
[1] = test system: Plasmodium falciparum strain 3D7; assay: Plasmodium falciparum growth inhibition imaging assay; format: cell-based; conditions: for SI (selectivity index): HEK293 IC50 value divided by P. falciparum IC50 value; for IC50: P. falciparum 3D7, 72 hr, n = 3
Procedure: In vitro parasite culture was maintained in RPMI with 10 mM Hepes (Life Technologies), 50 μg/ml hypoxanthine (Sigma) and 5 mg/ml AlbuMAX II® (Life Technologies). Human O + erythrocytes were obtained from the Australian Red Cross Blood Service (Agreement No: 13-04QLD-09). The parasites were maintained at 2-8% parasitaemia (% P) at 5% haematocrit (% H), incubated at 37°C, 5% CO2, 5%O2 and 90% N2 and 95% humidity. The well-established P. falciparum imaging assay was modified to allow assessment of chemical rescue with CoA. In brief, sorbitol (5% w/v) synchronization was performed twice, approximately 8 hr apart, on each synchronization day for two consecutive ring cycles, i.e., on day 1 and 3 of assay preparation. On day 2 the culture was split to approximately 2% trophozoite parasitaemia. On day 4 the culture was split to 1-1.5% trophozoite parasitaemia, which yielded approximately 8% ring parasitaemia after 48 hr (on day 5, i.e., the day of the assay set-up). Compound stocks (10 mM in 100% DMSO) were diluted 1:25 in sterile water, less than 24 hr prior to use. An additional 1:10 dilution was performed, resulting in a 1:250 overall compound dilution and a final DMSO concentration of 0.4%. For initial screening, compounds were tested at a final 2 μM concentration. For dose response curves of the active compounds, a semi-logarithmic serial dilution (containing three data points per log) was prepared at 40 μM top concentration for test compounds and 2 μM for the positive control, artemisinin. The known P. falciparum CoA synthesis inhibitor, panthenol, was prepared as a 100 mM solution in 4% DMSO. The final concentration of the dose response curve of panthenol started at 10 mM and was serially diluted down to 100 nM. CoA was dissolved in water. The final CoA concentration for optimal rescue results was determined for each CoA batch and ranged between 0.8-2 mM. Five μl of the 1:25 diluted test compound or control solutions were added to 384-well CellCarrier imaging plates (PerkinElmer). For the chemical rescue, 5 μl of CoA solution were added to ‘rescue’ wells and 5 μl water to all control and reference wells, respectively. Parasite culture was added to a final concentration of 1% parasitaemia (% P) and 0.3% haematocrit (% H). Plates were incubated for 72 hr at 37°C, 5% CO2 and 95% humidity. On day 8 the permeabilization and nuclear staining buffer was prepared in PBS containing 10 μg/ml saponin, 0.01% triton X, 5 mM EDTA (all: Sigma) and 0.5 μg/ml 4′,6-diamidino-2-phenylindole (DAPI; Life Technologies). The plates were left for at least 4 hr (typically overnight), before confocal imaging on an Opera™ High Content Screening Platform (PerkinElmer) at 405 nm excitation with a 20x water objective. Automated primary image analysis was performed concurrent with the imaging process, utilizing an Acapella® software (PerkinElmer) script to determine the number of parasites based on object size and fluorescence intensity. Determination of the % growth compared to controls (2 μM artemisinin as positive and 0.4% DMSO as negative control) was performed in Microsoft® Excel 2010. Statistical analysis including IC50 determination and graphical output was performed in GraphPad Prism® 5 using non-linear regression variable slope curve fitting.

HEK293 cells = assay: CoA chemical rescue on HEK293 cells; format: cell-based, human; conditions: dose response with and without CoA, n = 2
Procedure: To assess cytotoxicity of compounds in dose response, a resazurin-based assay was utilized to determine cell viability. In brief, HEK293 cells were grown in DMEM medium (Life Technologies) containing 10% foetal calf serum (FCS; Gibco). Cells were trypsinized, counted and seeded at 2,000 cells per well in 45 μl media into TC-treated 384-well plates (Falcon) and left to adhere overnight at 37°C, 5% CO2 and 95% humidity.
Plates were incubated for 72 hr at 37°C, 5% CO2 and 95% humidity, then the media was removed and replaced by 35 μl of 44 μM resazurin in DMEM without FCS. The plates were incubated for another 4-6 hr at 37°C, 5% CO2 and 95% humidity before reading on an EnVision® Plate Reader (PerkinElmer) using fluorescence excitation/emission settings of 530 nm/595 nm. Determination of the% growth compared to controls (40 μM puromycin as positive and 0.4% DMSO as negative control) was performed in Microsoft® Excel 2010. Statistical analysis including IC50 determination and graphical output was performed in GraphPad Prism® 5 using nonlinear regression variable slope curve fitting.

| Structure (SMILES) | SI (selectivity index) [1] | IC50 [1] | cytotoxic effect on HEK293 cells upon CoA addition (HEK293 cells) | SI (selectivity index) ([1]; listed as MMV000304) |
| --- | --- | --- | --- | --- |
| CCc1ccc(Nc2cc(C)c3ccc(O)cc3n2)cc1.Cl [MMV000570/C614-0191] | ~ 54 | 740 nM |  |  |
| CC(C)=NOC(=O)c1c(C)noc1-c1snnc1C [SPB03400] |  | 450 nM |  |  |
| CC(=O)c1ccc2c3c(onc13)-c1ccccc1C2=O [Amb3377585] | 18 | 150 nM |  |  |
| COc1ccc2c(=O)cc(C(Cl)(Cl)Cl)oc2c1 [MMV665820/5534045] | 6.2 | 580 nM |  |  |
| Cc1csc(Sc2ncnc3sccc23)n1 [Amb180780] | ~ 333 | 120 nM |  |  |
| CCOc1ccc(Nc2c3ccccc3nc3ccccc23)cc1.Cl [MMV000304/Amb636705] | 0.8 | 1210 nM | reduced upon CoA addition | no parasite specificity |
| CC1=CC(=O)C(C(C)C)=C/C1=N/OS(=O)(=O)c1ccccc1 [STK 740987] | > 105 | 380 nM |  |  |
